Columns and labels:
[1] = Visual analog scale of energy after BHP or BKP (Example 1); type: in vivo, human; settings: scale 1-10, 10 g oral, 12 h fast
Protocol: (§1) Two (2) healthy, male subjects reported to the laboratory following a 12 hour overnight fast. Subjects were instructed to randomly consume either 10 grams of BHP or 10 grams BKP dissolved in 12 ounces of water. Subjects were then monitored for 150 minutes following drinking the mixture. Blood glucose, ketones, and visual analog scales (VAS) of well-being, energy, and focus were taken at 0, 30, 60, 90, 120, and 150 minutes. VAS scales consisted of a continuum of numbers from 1-10 with 1 being extremely low and 10 being extremely high.

[2] = short-term experiments; large supply of propionyl-CoA; cited from earlier work
[3] = Blood ketones after oral BHP (Example 3); type: in vivo, human; settings: 10 g BHP oral in water
Protocol: (§2) Subjects consumed 10 grams of BHP dissolved in 12 ounces of water. Subjects were then monitored for 80 minutes following drinking the mixture. Blood glucose, ketones, and lactate were taken at 0, 20, 40, 60, and 80 minutes.
(§3) Blood ketones were measured via finger prick using an Abbott Precision device which determines mMol of BHB. Blood glucose was measured using Abbott Precision glucose strips and was measured in mg/dL. Blood lactate was measured using an Abbott Precision device which determines mMol of lactate.

[4] = Blood glucose after oral BHP (Example 3); type: in vivo, human; settings: 10 g BHP oral in water
Protocol: as §2, §3

[5] = Blood ketones (BHB, Abbott Precision) after oral BHP or BKP (Example 1); type: in vivo, human; settings: 10 g oral in water, 12 h fast
Protocol: as §1
(§4) Blood ketones were measured via finger prick using an Abbott Precision device which determines mMol of BHB. Blood glucose was measured using Abbott Precision glucose strips and was measured in mg/dL.

[6] = Visual analog scale of well-being after BHP or BKP (Example 1); type: in vivo, human; settings: scale 1-10, 10 g oral, 12 h fast
Protocol: as §1

[7] = Blood glucose after oral BHP or BKP (Example 1); type: in vivo, human; settings: 10 g oral in water, 12 h fast
Protocol: as §1, §4

[8] = Visual analog scale of focus after BHP or BKP (Example 1); type: in vivo, human; settings: scale 1-10, 10 g oral, 12 h fast
Protocol: as §1

[9] = Blood lactate after oral BHP, safety (Example 3); type: in vivo, human; settings: 10 g BHP oral in water
Protocol: The purpose of this experiment was to determine safety associated with ingestion of exogenous C5 ketones with regard to hyperlactemia, lactic acidosis, or ketoacidosis that sometimes happens with medications, as all 3 are associated with morbidity and mortality.
as §2, §3

With `CCC(O)CC(=O)O` (stereo not drawn) [BHP, β-hydroxypentanoate] the “VAS of Energy” value ([1]; Combined, 0 min.) was 4, the “VAS of Energy” value ([1]; Combined, 30 min.) was 3.5 and the “VAS of Energy” value ([1]; Combined, 60 min.) was 3.5. For the same molecule, the “VAS of Energy” value ([1]; Combined, 90 min.) was 5, the “VAS of Energy” value ([1]; Combined, 120 min.) was 4.5 and the “VAS of Energy” value ([1]; Combined, 150 min.) was 6. The “VAS of Energy” value ([1]; Subject 1, 0 min.) was 5, the “VAS of Energy” value ([1]; Subject 1, 30 min.) was 4 and the “VAS of Energy” value ([1]; Subject 1, 60 min.) was 5. For the same molecule, the “VAS of Energy” value ([1]; Subject 1, 90 min.) was 7, the “VAS of Energy” value ([1]; Subject 1, 120 min.) was 5 and the “VAS of Energy” value ([1]; Subject 1, 150 min.) was 7. For the same molecule, the “VAS of Energy” value ([1]; Subject 2, 0 min.) was 3, the “VAS of Energy” value ([1]; Subject 2, 30 min.) was 3 and the “VAS of Energy” value ([1]; Subject 2, 60 min.) was 2. The “VAS of Energy” value ([1]; Subject 2, 90 min.) was 3, the “VAS of Energy” value ([1]; Subject 2, 120 min.) was 4 and the “VAS of Energy” value ([1]; Subject 2, 150 min.) was 5. The “Metabolism and tolerance in animals” value [2] was “well metabolized in animals without apparent intolerance”, the “Blood Ketones” value ([3]; 0 min.) was 0.3 mmol/L and the “Blood Ketones” value ([3]; 20 min.) was 0.6 mmol/L. The “Blood Ketones” value ([3]; 40 min.) was 1.8 mmol/L, the “Blood Ketones” value ([3]; 60 min.) was 1.1 mmol/L and the “Blood Ketones” value ([3]; 80 min.) was 0.5 mmol/L. For the same molecule, the “Blood Glucose” value ([4]; 0 min.) was 99.5 mg/dL, the “Blood Glucose” value ([4]; 20 min.) was 103 mg/dL and the “Blood Glucose” value ([4]; 40 min.) was 102.5 mg/dL. For the same molecule, the “Blood Glucose” value ([4]; 60 min.) was 94.5 mg/dL, the “Blood Glucose” value ([4]; 80 min.) was 92.5 mg/dL and the Blood ketone levels ([5]; Combined, 0 min.) was 0.1 mmol. The Blood ketone levels ([5]; Combined, 30 min.) was 1.6 mmol, the Blood ketone levels ([5]; Combined, 60 min.) was 0.55 mmol and the Blood ketone levels ([5]; Combined, 90 min.) was 0.2 mmol. It also gave a Blood ketone levels ([5]; Combined, 120 min.) of 0.3 mmol, a Blood ketone levels ([5]; Combined, 150 min.) of 0.2 mmol and a Blood ketone levels ([5]; Subject 1, 0 min.) of 0.1 mmol. For the same molecule, the Blood ketone levels ([5]; Subject 1, 30 min.) was 1.8 mmol, the Blood ketone levels ([5]; Subject 1, 60 min.) was 0.7 mmol and the Blood ketone levels ([5]; Subject 1, 90 min.) was 0.2 mmol. For the same molecule, the Blood ketone levels ([5]; Subject 1, 120 min.) was 0.2 mmol, the Blood ketone levels ([5]; Subject 1, 150 min.) was 0.2 mmol and the Blood ketone levels ([5]; Subject 2, 0 min.) was 0.1 mmol. It also gave a Blood ketone levels ([5]; Subject 2, 30 min.) of 1.4 mmol, a Blood ketone levels ([5]; Subject 2, 60 min.) of 0.4 mmol and a Blood ketone levels ([5]; Subject 2, 90 min.) of 0.2 mmol. For the same molecule, the Blood ketone levels ([5]; Subject 2, 120 min.) was 0.4 mmol, the Blood ketone levels ([5]; Subject 2, 150 min.) was 0.2 mmol and the “VAS of Well-Being” value ([6]; Combined, 0 min.) was 6. The “VAS of Well-Being” value ([6]; Combined, 30 min.) was 5, the “VAS of Well-Being” value ([6]; Combined, 60 min.) was 4.5 and the “VAS of Well-Being” value ([6]; Combined, 90 min.) was 6. For the same molecule, the “VAS of Well-Being” value ([6]; Combined, 120 min.) was 4.5, the “VAS of Well-Being” value ([6]; Combined, 150 min.) was 5 and the “VAS of Well-Being” value ([6]; Subject 1, 0 min.) was 7. The “VAS of Well-Being” value ([6]; Subject 1, 30 min.) was 5, the “VAS of Well-Being” value ([6]; Subject 1, 60 min.) was 5 and the “VAS of Well-Being” value ([6]; Subject 1, 90 min.) was 7. The “VAS of Well-Being” value ([6]; Subject 1, 120 min.) was 5, the “VAS of Well-Being” value ([6]; Subject 1, 150 min.) was 6 and the “VAS of Well-Being” value ([6]; Subject 2, 0 min.) was 5. For the same molecule, the “VAS of Well-Being” value ([6]; Subject 2, 30 min.) was 5, the “VAS of Well-Being” value ([6]; Subject 2, 60 min.) was 4 and the “VAS of Well-Being” value ([6]; Subject 2, 90 min.) was 5. The “VAS of Well-Being” value ([6]; Subject 2, 120 min.) was 4, the “VAS of Well-Being” value ([6]; Subject 2, 150 min.) was 4 and the Blood glucose levels ([7]; Combined, 0 min.) was 84 mg/dL. The Blood glucose levels ([7]; Combined, 30 min.) was 80.5 mg/dL, the Blood glucose levels ([7]; Combined, 60 min.) was 70.5 mg/dL and the Blood glucose levels ([7]; Combined, 90 min.) was 79 mg/dL. It also gave a Blood glucose levels ([7]; Combined, 120 min.) of 83.5 mg/dL, a Blood glucose levels ([7]; Combined, 150 min.) of 90.5 mg/dL and a Blood glucose levels ([7]; Subject 1, 0 min.) of 84 mg/dL. It also gave a Blood glucose levels ([7]; Subject 1, 30 min.) of 85 mg/dL, a Blood glucose levels ([7]; Subject 1, 60 min.) of 75 mg/dL and a Blood glucose levels ([7]; Subject 1, 90 min.) of 79 mg/dL. The Blood glucose levels ([7]; Subject 1, 120 min.) was 86 mg/dL, the Blood glucose levels ([7]; Subject 1, 150 min.) was 91 mg/dL and the Blood glucose levels ([7]; Subject 2, 0 min.) was 84 mg/dL. The Blood glucose levels ([7]; Subject 2, 30 min.) was 76 mg/dL, the Blood glucose levels ([7]; Subject 2, 60 min.) was 66 mg/dL and the Blood glucose levels ([7]; Subject 2, 90 min.) was 79 mg/dL. The Blood glucose levels ([7]; Subject 2, 120 min.) was 81 mg/dL, the Blood glucose levels ([7]; Subject 2, 150 min.) was 90 mg/dL and the “VAS of Focus” value ([8]; Combined, 0 min.) was 3.5. For the same molecule, the “VAS of Focus” value ([8]; Combined, 30 min.) was 4, the “VAS of Focus” value ([8]; Combined, 60 min.) was 3 and the “VAS of Focus” value ([8]; Combined, 90 min.) was 3. The “VAS of Focus” value ([8]; Combined, 120 min.) was 5, the “VAS of Focus” value ([8]; Combined, 150 min.) was 5 and the “VAS of Focus” value ([8]; Subject 1, 0 min.) was 5. For the same molecule, the “VAS of Focus” value ([8]; Subject 1, 30 min.) was 5, the “VAS of Focus” value ([8]; Subject 1, 60 min.) was 5 and the “VAS of Focus” value ([8]; Subject 1, 90 min.) was 5. The “VAS of Focus” value ([8]; Subject 1, 120 min.) was 5, the “VAS of Focus” value ([8]; Subject 1, 150 min.) was 5 and the “VAS of Focus” value ([8]; Subject 2, 0 min.) was 2. For the same molecule, the “VAS of Focus” value ([8]; Subject 2, 30 min.) was 3, the “VAS of Focus” value ([8]; Subject 2, 60 min.) was 3 and the “VAS of Focus” value ([8]; Subject 2, 90 min.) was 3. For the same molecule, the “VAS of Focus” value ([8]; Subject 2, 120 min.) was 5, the “VAS of Focus” value ([8]; Subject 2, 150 min.) was 5 and the “Blood Lactate” value ([9]; 0 min.) was 1.3 mmol/L. The “Blood Lactate” value ([9]; 20 min.) was 1.4 mmol/L, the “Blood Lactate” value ([9]; 40 min.) was 0.7 mmol/L and the “Blood Lactate” value ([9]; 60 min.) was 0.9 mmol/L. The “Blood Lactate” value ([9]; 80 min.) was 1.1 mmol/L.
